{"source": "patent US7550162B2", "about": "“Labiatae herb extracts and hop extracts for extending the color life and inhibiting the growth of microorganisms in fresh meat, fish and poultry” (Kalsec Incorporated, priority 2001, dated 2009)", "origin": "cited, not measured here", "key": {"Listeria": {"test_system": "Listeria", "details": "soy broth"}, "Gram-positive organisms": {"test_system": "Gram-positive organisms", "details": "value also given in ppm"}, "Gram positive organisms": {"test_system": "Gram positive organisms", "details": "in culture"}}, "note": "Where two headings read alike, the source gives them in different places."}
{"smiles": "CC(C)CCC1=C(O)C(C(=O)C(C)C)=C(O)C(CCC(C)C)(CCC(C)C)C1=O", "note": "[hexahydrocolulupone, hexahydrocolupulone]", "values": [{"measurement": "concentration inhibiting Listeria", "setting": "Listeria", "result": 0.4, "unit": "ppm"}]}
{"smiles": "CC(C)=CCC1=C(O)C(C(=O)CC(C)C)=C(O)C(CC=C(C)C)(CC=C(C)C)C1=O", "note": "[Lupulone (beta acids), Lupulone]", "values": [{"measurement": "Minimum inhibitory concentration", "setting": "Gram-positive organisms", "result": 1, "unit": "µg/mL"}, {"measurement": "MIC", "setting": "Gram positive organisms", "result": "1-10 ppm"}]}
{"smiles": "CC(C)=CCC(=O)C1(O)C(O)=C(C(=O)CC(C)C)C(=O)C1CC=C(C)C", "note": "(centres unmarked) [isohumulone]", "values": [{"measurement": "Minimum inhibitory concentration", "setting": "Gram-positive organisms", "result": 25, "unit": "µg/mL"}, {"measurement": "relative activity", "setting": "beer spoilage organisms; pH 3.8", "result": 226}, {"measurement": "relative activity", "setting": "beer spoilage organisms; pH 4.6", "result": 42}]}
{"smiles": "CC(C)CCC(=O)C1(O)C(O)=C(C(=O)CC(C)C)C(=O)C1CCC(C)C", "note": "(centres unmarked) [Tetrahydroisohumulone, tetrahydroisohumulone]", "values": [{"measurement": "concentration inhibiting Listeria", "setting": "Listeria", "result": "6-18 ppm"}]}
{"smiles": "CC(C)=CCC1=C(O)C(C(=O)CC(C)C)=C(O)C1O", "note": "(centres unmarked) [humulinic acid]", "values": [{"measurement": "Minimum inhibitory concentration", "setting": "Gram-positive organisms", "result": 250, "unit": "µg/mL"}]}
